In US20240209028A1, “CNP COMPOUNDS” (priority 2022, published 2024):
Starred links: 1 amine or outer side, 2 acyl side, 3 side chain; linkers in the order of their positions; H or OH if unused. Positions of bridges follow the written chain, without caps; N, C: chain ends. Residues, ends and D or L forms follow the SMILES beside them. *: point of attachment. C18 diacid = O=C(O)CCCCCCCCCCCCCCCCC(=O)*; γGlu = O=C(O)[C@H](CCC(=O)[*:2])N[*:1]; AEEA = NCCOCCOCC(=O)O

Assays:
[1] = target: T1, human natriuretic peptide receptor 2 (hNPR2) (Homo sapiens, UniProt P20594); assay: In vitro hNPR2 activity assay (cGMP GloSensor reporter, HEK293); type: cell-based; details: potency relative to CNP22 (0065)
T1 construct: expressed in transfected cells; host or cells: HEK293 (ATCC CRL-1573), clone 35, co-transfected with pGloSensor-42F
T1 sequence (P20594 23-1047): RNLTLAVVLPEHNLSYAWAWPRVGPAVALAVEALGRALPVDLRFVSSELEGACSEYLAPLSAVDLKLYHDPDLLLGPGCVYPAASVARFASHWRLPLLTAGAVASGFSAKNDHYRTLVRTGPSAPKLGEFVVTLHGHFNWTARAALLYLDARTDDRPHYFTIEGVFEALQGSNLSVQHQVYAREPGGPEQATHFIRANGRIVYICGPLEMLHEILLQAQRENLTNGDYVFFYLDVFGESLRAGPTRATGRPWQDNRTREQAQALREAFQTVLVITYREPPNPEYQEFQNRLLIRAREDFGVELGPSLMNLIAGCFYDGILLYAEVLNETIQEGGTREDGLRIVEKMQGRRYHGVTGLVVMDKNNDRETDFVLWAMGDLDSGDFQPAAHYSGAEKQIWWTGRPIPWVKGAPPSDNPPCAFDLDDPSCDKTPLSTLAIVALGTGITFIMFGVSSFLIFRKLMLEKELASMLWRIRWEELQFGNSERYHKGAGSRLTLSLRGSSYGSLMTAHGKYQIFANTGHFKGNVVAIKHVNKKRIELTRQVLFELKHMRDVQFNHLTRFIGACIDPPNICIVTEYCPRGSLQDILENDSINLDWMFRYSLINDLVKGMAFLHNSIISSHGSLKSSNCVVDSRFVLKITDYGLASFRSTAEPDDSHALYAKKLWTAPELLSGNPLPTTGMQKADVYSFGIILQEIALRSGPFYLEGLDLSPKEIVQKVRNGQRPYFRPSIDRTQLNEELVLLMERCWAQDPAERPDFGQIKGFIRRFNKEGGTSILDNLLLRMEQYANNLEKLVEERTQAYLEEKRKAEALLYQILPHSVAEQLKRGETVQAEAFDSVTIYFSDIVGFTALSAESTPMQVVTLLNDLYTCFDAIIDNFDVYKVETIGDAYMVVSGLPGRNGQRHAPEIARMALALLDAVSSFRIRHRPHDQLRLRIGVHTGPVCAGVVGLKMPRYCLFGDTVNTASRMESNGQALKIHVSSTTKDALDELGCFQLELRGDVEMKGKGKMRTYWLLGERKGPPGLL
Method in brief: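 Potency is the EC50 from a four-parameter logistic fit, also expressed relative to the in-plate CNP22 control (×100), with at least two replicates. Compounds (ten concentrations, […], HSA-free diluent with 1% OVA, 0.01% Tween20) were incubated 30 min at 37 °C on HEK293 cells co-expressing hNPR2 and a GloSensor cGMP luciferase. Luminescence detected with Bright-Glo.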

[2] = High-Molecular-Weight-Protein (HMWP) formation by SEC-UPLC; type: physicochemical; details: increase over two weeks at 37° C.
Procedure: In order to assess the propensity of CNP compounds to form covalent dimers or oligomers when formulated the High-Molecular-Weight-Protein content of CNP compound formulations at pH 4.0 and 6.5 were determined.
Procedure: The relative amount of covalent HMWP was assessed using SEC-UPLC. SEC-UPLC was conducted using a Waters UPLC Protein BEH SEC column, 125A, 4.6×150 mm, 1.7 μm, with isocratic elution (0.3 M NaCl, 10 mM NaH2PO4 and 5 mM H3PO4, 50% (v/v) isopropanol, pH 2.4) with a flow rate of 0.3 mL/min, a column temperature at 50° C. with UV-detection at 215 nm. The total area of peaks eluting prior to the monomeric main peak was termed HMWP and given on a percentage scale relative to the total peptide peak area.
(§1) Results: HMWP Formation Following 2-Weeks Quiescent Incubation at 37° C.: Samples at pH 4.0 were prepared as described in Example 5 and the amount of HMWP was determined as described above. Samples were incubated for two weeks at 37° C. and the amount of HMWP was determined again. The increase in HMWP over two weeks incubation at 37° C. are reported in Table 10 (in case the incubation period deviated from two weeks the increase in HMWP was normalized to two weeks assuming a constant formation rate).
as §1, with “Samples” for “Results: HMWP Formation Following 2-Weeks Quiescent Incubation at 37° C.: Samples”, “6.5” for “4.0”, “11” for “10”

Row | SMILES | hNPR2 0% HSA. [EC50% rel CNP] [1] | 2-Week HMWP formation at pH 6.5 (%), % relative to total peak area [2] | 2-Week HMWP formation at pH 4.0 (%), % relative to total peak area ([2]; pH 4.0)
1 | CC[C@H](C)[C@@H]1NC(=O)[C@H](CCCNC(=N)N)NC(=O)[C@H](CC(=O)O)NC(=O)[C@H](CC(C)C)NC(=O)[C@@H]2CCCN2C(=O)[C@H](CC(C)C)NC(=O)CNC(=O)[C@H](Cc2ccccc2)NC(=O)[C@@H](NC(=O)CNC(=O)[C@H](CO)NC(=O)[C@H](CO)NC(=O)[C@H](CC(C)C)NC(=O)CNC(=O)[C@H](CCCCN)NC(=O)[C@H](CCCCN)NC(=O)[C@H](CCC(N)=O)NC(=O)[C@H](C)NC(=O)CNC(=O)[C@H](CCC(=O)O)NC(=O)[C@H](Cc2ccc(O)cc2)NC(=O)COCCOCCNC(=O)COCCOCCNC(=O)COCCOCCNC(=O)COCCOCCNC(=O)CC[C@H](NC(=O)CCCCCCCCCCCCCCCCC(=O)O)C(=O)O)CSSC[C@@H](C(=O)O)NC(=O)CNC(=O)[C@H](CC(C)C)NC(=O)CNC(=O)[C@H](CO)NC(=O)[C@H](CC(C)C)NC(=O)[C@H](CO)NC(=O)CNC1=O [compound 1392] ({C18 diacid-γGlu-AEEA-AEEA-AEEA-AEEA}-YEGAQKKGLSSGCFGLPLDRIGSLSGLGC-OH; disulfide 13-29) | 29.5% | 0.33% | 
2 | CC[C@H](C)[C@@H]1NC(=O)[C@H](CCCNC(=N)N)NC(=O)[C@H](CC(=O)O)NC(=O)[C@H](CC(C)C)NC(=O)[C@@H]2CCCN2C(=O)[C@H](CC(C)C)NC(=O)CNC(=O)[C@H](Cc2ccccc2)NC(=O)[C@@H](NC(=O)CNC(=O)[C@H](CCC(N)=O)NC(=O)[C@H](CO)NC(=O)[C@H](CC(C)C)NC(=O)CNC(=O)[C@H](CCCCN)NC(=O)[C@H](CCCCN)NC(=O)[C@H](CCC(N)=O)NC(=O)[C@H](C)NC(=O)CNC(=O)[C@H](CCCCN)NC(=O)[C@H](Cc2ccc(O)cc2)NC(=O)[C@H](CCCCN)NC(=O)[C@H](CCCNC(=N)N)NC(=O)[C@H](C)NC(=O)[C@H](CCC(N)=O)NC(=O)[C@@H]2CCCN2C(=O)[C@H](Cc2c[nH]cn2)NC(=O)[C@H](CCC(=O)O)NC(=O)[C@H](CCC(N)=O)NC(=O)COCCOCCNC(=O)COCCOCCNC(=O)CC[C@H](NC(=O)CC[C@H](NC(=O)CC[C@H](NC(=O)CC[C@H](NC(=O)CC[C@H](NC(=O)CC[C@H](NC(=O)CCCCCCCCCCCCCCCCC(=O)O)C(=O)O)C(=O)O)C(=O)O)C(=O)O)C(=O)O)C(=O)O)CSSC[C@@H](C(=O)O)NC(=O)CNC(=O)[C@H](CC(C)C)NC(=O)CNC(=O)[C@H](CO)NC(=O)[C@H](CC(C)C)NC(=O)[C@H](CO)NC(=O)CNC1=O [compound 1402] ({C18 diacid-γGlu-γGlu-γGlu-γGlu-γGlu-γGlu-AEEA-AEEA}-QEHPQARKYKGAQKKGLSQGCFGLPLDRIGSLSGLGC-OH; disulfide 21-37) | 57.6% | 2.19% | 
3 | CC[C@H](C)[C@@H]1NC(=O)[C@H](CCCNC(=N)N)NC(=O)[C@H](CC(=O)O)NC(=O)[C@H](CC(C)C)NC(=O)[C@@H]2CCCN2C(=O)[C@H](CC(C)C)NC(=O)CNC(=O)[C@H](Cc2ccccc2)NC(=O)[C@@H](NC(=O)CNC(=O)[C@H](CCC(N)=O)NC(=O)[C@H](CO)NC(=O)[C@H](CC(C)C)NC(=O)CNC(=O)[C@H](CCCCN)NC(=O)[C@H](CCCCN)NC(=O)[C@H](CCC(N)=O)NC(=O)[C@H](C)NC(=O)CNC(=O)[C@H](CCCCN)NC(=O)[C@H](Cc2ccc(O)cc2)NC(=O)[C@H](CCCCN)NC(=O)[C@H](CCCNC(=N)N)NC(=O)[C@H](C)NC(=O)[C@H](CCC(N)=O)NC(=O)[C@@H]2CCCN2C(=O)[C@H](Cc2c[nH]cn2)NC(=O)[C@H](CCC(=O)O)NC(=O)[C@H](CCC(N)=O)NC(=O)COCCOCCNC(=O)COCCOCCNC(=O)COCCOCCNC(=O)COCCOCCNC(=O)CC[C@H](NC(=O)CC[C@H](NC(=O)CC[C@H](NC(=O)CC[C@H](NC(=O)CC[C@H](NC(=O)CC[C@H](NC(=O)CCCCCCCCCCCCCCCCC(=O)O)C(=O)O)C(=O)O)C(=O)O)C(=O)O)C(=O)O)C(=O)O)CSSC[C@@H](C(=O)O)NC(=O)CNC(=O)[C@H](CC(C)C)NC(=O)CNC(=O)[C@H](CO)NC(=O)[C@H](CC(C)C)NC(=O)[C@H](CO)NC(=O)CNC1=O [compound 1404] ({C18 diacid-γGlu-γGlu-γGlu-γGlu-γGlu-γGlu-AEEA-AEEA-AEEA-AEEA}-QEHPQARKYKGAQKKGLSQGCFGLPLDRIGSLSGLGC-OH; disulfide 21-37) | 81.3% | 1.8% | 
4 | CC[C@H](C)[C@@H]1NC(=O)[C@H](CCCNC(=N)N)NC(=O)[C@H](CC(=O)O)NC(=O)[C@H](CC(C)C)NC(=O)[C@@H]2CCCN2C(=O)[C@H](CC(C)C)NC(=O)CNC(=O)[C@H](Cc2ccccc2)NC(=O)[C@@H](NC(=O)CNC(=O)[C@H](CCC(N)=O)NC(=O)[C@H](CO)NC(=O)[C@H](CC(C)C)NC(=O)CNC(=O)[C@H](CCCCN)NC(=O)[C@H](CCCCN)NC(=O)[C@H](CCC(N)=O)NC(=O)[C@H](C)NC(=O)CNC(=O)[C@H](CCCCN)NC(=O)[C@H](Cc2ccc(O)cc2)NC(=O)[C@H](CCCCN)NC(=O)[C@H](CCCNC(=N)N)NC(=O)[C@H](C)NC(=O)[C@H](CCC(N)=O)NC(=O)[C@@H]2CCCN2C(=O)[C@H](Cc2c[nH]cn2)NC(=O)[C@H](CCC(=O)O)NC(=O)[C@H](CCC(N)=O)NC(=O)COCCOCCNC(=O)COCCOCCNC(=O)COCCOCCNC(=O)COCCOCCNC(=O)CC[C@H](NC(=O)CC[C@H](NC(=O)CC[C@H](NC(=O)CC[C@H](NC(=O)CC[C@H](NC(=O)CCCCCCCCCCCCCCCCC(=O)O)C(=O)O)C(=O)O)C(=O)O)C(=O)O)C(=O)O)CSSC[C@@H](C(=O)O)NC(=O)CNC(=O)[C@H](CC(C)C)NC(=O)CNC(=O)[C@H](CO)NC(=O)[C@H](CC(C)C)NC(=O)[C@H](CO)NC(=O)CNC1=O [compound 1406] ({C18 diacid-γGlu-γGlu-γGlu-γGlu-γGlu-AEEA-AEEA-AEEA-AEEA}-QEHPQARKYKGAQKKGLSQGCFGLPLDRIGSLSGLGC-OH; disulfide 21-37) | 59.1% | 2.77% | 
5 | CC[C@H](C)[C@@H]1NC(=O)[C@H](CCCNC(=N)N)NC(=O)[C@H](CC(=O)O)NC(=O)[C@H](CC(C)C)NC(=O)[C@@H]2CCCN2C(=O)[C@H](CC(C)C)NC(=O)CNC(=O)[C@H](Cc2ccccc2)NC(=O)[C@@H](NC(=O)CNC(=O)[C@H](CO)NC(=O)[C@H](CO)NC(=O)[C@@H](NC(=O)CNC(=O)[C@H](CCCCN)NC(=O)[C@H](CCCCN)NC(=O)[C@H](CCC(N)=O)NC(=O)[C@H](C)NC(=O)CNC(=O)[C@H](Cc2c[nH]cn2)NC(=O)[C@H](Cc2ccc(O)cc2)NC(=O)[C@H](CCCCN)NC(=O)[C@H](CCCNC(=N)N)NC(=O)[C@H](C)NC(=O)COCCOCCNC(=O)COCCOCCNC(=O)CC[C@H](NC(=O)CC[C@H](NC(=O)CC[C@H](NC(=O)CCCCCCCCCCCCCCCCC(=O)O)C(=O)O)C(=O)O)C(=O)O)C(C)C)CSSC[C@@H](C(=O)O)NC(=O)CNC(=O)[C@H](CC(C)C)NC(=O)CNC(=O)[C@H](CO)NC(=O)[C@H](CC(C)C)NC(=O)[C@H](CO)NC(=O)CNC1=O [compound 1422] ({C18 diacid-γGlu-γGlu-γGlu-AEEA-AEEA}-ARKYHGAQKKGVSSGCFGLPLDRIGSLSGLGC-OH; disulfide 16-32) | 75.3% |  | 36%
